Measured values reported in patent US7179814B2, “Agents for controlling plant pests” (priority 1998, dated 2007).
Like-named read-outs stand apart in the source and are kept apart here.

Key:
[1] = tested on: Diabrotica balteata larvae in soil; experiment: Critical concentration test/soil insects, Diabrotica balteata; format: in vivo; conditions: 20.0 ppm in soil, 7 days after infestation; for pest or weed control at 20 ppm: Diabrotica balteata, 168 h, read-out: Kill in %
Description: (§1) To produce a suitable preparation of active compound, 1 part by weight of the active compound or the active compound mixture is mixed with the stated amounts of solvent and emulsifier, and the concentrate is diluted with water to the desired concentration.
(§2) The active compound preparation is mixed intimately with soil. Here, the concentration of the active compound in the preparation is almost irrelevant; only the amount by weight of active compound or active compound mixture per volume unit of soil, which is stated in ppm (mg/l), matters.
Soil is filled into 0.5 l pots and these are allowed to stand at 20° C. Immediately after preparation, 5 pre-germinated maize corns are placed into each pot. After 2 days, the test insects are placed into the treated soil. After a further 7 days, the kill in % is determined. 100% means that all test insects have been killed; 0% means that none of the test insects have been killed.

[2] = tested on: caterpillars of the diamondback moth (Plutella xylostella); experiment: Plutella test (cabbage leaf dip); format: in vivo
Description: (§3) To produce a suitable preparation of active compound, 1 part by weight of an active compound or an active compound combination is mixed with the stated amounts of solvent and emulsifier, and the concentrate is diluted with water to the desired concentration.
Cabbage leaves (Brassica oleracea) are treated by being dipped into the preparation of active compound of the desired concentration and are populated with caterpillars of the diamondback moth (Plutella xylostella) while the leaves are still moist.
After the desired period of time, the kill in % is determined 100% means that all caterpillars have been killed; 0% means that none of the caterpillars have been killed.

[3] = tested on: green rice leaf hopper (Nephotettix cincticeps); experiment: Nephotettix test (rice seedling dip); format: in vivo
Description: as §3
Rice seedlings (Oryza sativa) are treated by being dipped into the active compound preparation of the desired concentration and are populated with the green rice leaf hopper (Nephotettix cincticeps) while the leaves are still moist.
After the desired period of time, the kill in % is determined. 100% means that all the leaf hoppers have been killed; 0% means that none of the leaf hoppers have been killed.

Spodoptera frugiperda = experiment: Critical concentration test/soil insects, Spodoptera frugiperda; format: in vivo; conditions: 120 h, 20.00 ppm in soil, 5 days after infestation, read-out: Kill in %
Description: as §1, §2
Soil is filled into 0.5 l pots and these are allowed to stand at 20° C. Immediately after preparation, 3 pre-germinated maize corns are placed into each pot. After the maize corns have emerged, boring sleeves are placed onto the pots. 9 days after preparation, the maize is populated with the test insects. After a further 5 days, the kill in % is determined. 100% means that all test insects have been killed; 0% means that the number of insects which are still alive is the same as for the untreated control.

Botrytis cinerea = experiment: Botrytis test (bean)/protective; format: in vivo; conditions: 500 g/ha, single active compound
Description: as §3, with “of” for “of an”, “or” for “or an”, “desired concentration, or a commercial formulation of active compound or active compound combination is diluted with water to the desired” for “desired”
To test for protective activity, young plants are sprayed with the active compound preparation at the stated application rate. After the spray coating has dried on, 2 small pieces of agar colonized by Botrytis cinerea are placed onto each leaf. The inoculated plants are placed in a dark chamber at approximately 20° C. and 100% relative atmospheric humidity.
2 days after the inoculation, the size of the disease spots on the leaves is evaluated. 0% means an efficacy which corresponds to that of the control, whereas an efficacy of 100% means that no infection is observed.

[4] = tested on: Phaedon cochleariae larvae; experiment: Critical concentration test/root-systemic action, Phaedon cochleariae; format: in vivo; conditions: 72 h, 20.00 ppm in soil, root-systemic, 3 days after infestation, read-out: Kill in %
Description: as §1, §2
Soil is filled into 250 ml pots and these are planted with cabbage (Brassica oleracea). The active compound or the active compound combination can thus be taken up by the plant roots from the soil and transported into the leaves.
After 7 days, the leaves are populated with the abovementioned test animals. After a further 3 days, the kill in % is determined. 100% means that all test insects have been killed; 0% means that the number of insects which are still alive is the same as in the untreated control.

[5] = tested on: Erysiphe graminis f.sp. hordei; experiment: Erysiphe test (barley)/protective; format: in vivo; conditions: single active compound
Description: as §3, with “of” for “of an”, “or” for “or an”, “desired concentration, or a commercial formulation of active compound or active compound combination is diluted with water to the desired” for “desired”
(§4) To test for protective activity, young plants are sprayed with the preparation of active compound at the stated application rate.
After the spray coating has dried on, the plants are dusted with spores of Erysiphe graminis f.sp. hordei.
(§5) The plants are placed in a greenhouse at a temperature of approximately 20° C. and a relative atmospheric humidity of approximately 80% to promote the development of mildew pustules.
(§6) Evaluation is carried out 7 days after the inoculation. 0% means an efficacy which corresponds to that of the control, whereas an efficacy of 100% means that no infection is observed.

Pyrenophora teres = Pyrenophora teres test (barley)/protective; format: in vivo; conditions: 62.5 g/ha, single active compound, 7 days after inoculation
Description: as §3, with “of” for “of an”, “or” for “or an”, “desired concentration, or a commercial formulation of active compound or active compound combination is diluted with water to the desired” for “desired”
(§7) To test for protective activity, young plants are sprayed with the active compound preparation at the stated application rate. After the spray coating has dried on, the plants are sprayed with a conidia suspension of Pyrenophora teres. The plants remain in an incubation cabin at 20° C. and 100% relative atmospheric humidity for 48 hours.
The plants are then placed in a greenhouse at a temperature of approximately 20° C. and a relative atmospheric humidity of approximately 80%.
as §6

Phytophthora infestans = format: in vivo; conditions: single active compound
[6] = tested on: Heliothis virescens caterpillars; experiment: Heliothis virescens test (soya bean shoot dip); format: in vivo; conditions: concentration 0.02 %
Description: as §3
Soya bean shoots (Glycine max) are treated by being dipped into the active compound preparation of the desired concentration and are populated with Heliothis virescens caterpillars while the leaves are still moist.
After the desired period of time, the kill in % is determined. 100% means that all caterpillars have been killed; 0% means that none of the caterpillars have been killed.

[7] = tested on: Diabrotica balteata - larvae in the soil; experiment: Critical concentration test/soil insects, Diabrotica balteata (Example Q); format: in vivo; conditions: 10.00 ppm in soil; efficacy calculated from number of emerged maize plants
Description: To produce a suitable preparation of active compound, 1 part by weight of active compound is mixed with the stated amount of solvent, the stated amount of emulsifier is added and the concentrate is diluted with water to the desired concentration. Here, the concentration of the active compound in the preparation is almost irrelevant; only the amount by weight of active compound per volume unit of soil, which is stated in ppm (mg/l), matters. The soil is filled into 0.5 l pots and these are allowed to stand at 20° C.
Immediately after preparation, 5 maize corns are placed into each pot. After 3 days, the test insects are placed into the treated soil. After a further 7 days, the efficacy is determined. The efficacy is calculated from the number of maize plants which have emerged.

[8] = tested on: larvae of the mustard beetle (Phaedon cochleariae); experiment: Phaedon larvae test (cabbage leaf dip); format: in vivo; conditions: concentration 0.1 %
Description: as §3
Cabbage leaves (Brassica oleracea) are treated by being dipped into the preparation of active compound of the desired concentration and are populated with larvae of the mustard beetle (Phaedon cochleariae) while the leaves are still moist.
After the desired period of time, the kill in % is determined. 100% means that all beetle larvae have been killed; 0% means that none of the beetle larvae have been killed.

[9] = tested on: Erysiphe graminis f.sp. tritici; experiment: Erysiphe test (wheat)/protective; format: in vivo; conditions: single active compound
Description: as §3, with “of” for “of an”, “or” for “or an”, “desired concentration, or a commercial formulation of active compound or active compound combination is diluted with water to the desired” for “desired”
as §4
After the spray coating has dried on, the plants are dusted with spores of Erysiphe graminis f.sp. tritici.
as §5, §6

Puccinia recondita = experiment: Puccinia test (wheat)/protective; format: in vivo; conditions: 62.5 g/ha, 10 days after inoculation
Description: as §3, with “of” for “of an”, “or” for “or an”, “desired concentration, or a commercial formulation of active compound or active compound combination is diluted with water to the desired” for “desired”
as §7, with “Puccinia recondita.” for “Pyrenophora teres.”
The plants are then placed in a greenhouse at a temperature of approximately 20° C. and a relative atmospheric humidity of 80% to promote the development of rust pustules.
Evaluation is carried out 10 days after the inoculation. 0% means an efficacy which corresponds to that of the control, whereas an efficacy of 100% means that no infection is observed.

green peach aphid = experiment: Myzus test (cabbage leaf dip); format: in vivo, Myzus (green peach aphid); conditions: concentration 0.1 %
Description: as §3
Cabbage leaves (Brassica oleracea) which are heavily infested by the green peach aphid are treated by being dipped into the active compound preparation of the desired concentration.
After the desired period of time, the kill in % is determined. 100% means that all aphids have been killed; 0% means that none of the aphids have been killed.

[10] = 62.5 g/ha, 7 days after inoculation

With `CN(C)C(=S)SSC(=S)N(C)C` [TMTD] as the compound, how does the pest or weed control at 20 ppm [1] read?
The pest or weed control at 20 ppm was 0%.

And the Kill in % ([2]; concentration 0.1 %)?
The Kill in % was 0%.

What about the Kill in % ([3]; concentration 0.1 %) of the same compound?
The Kill in % was 0%.

How did the pest or weed control at 20 ppm (Spodoptera frugiperda) turn out when `CC(C)(C)C(O)C(Oc1ccc(-c2ccccc2)cc1)n1cncn1` (centres unmarked) [bitertanol] was run?
Its pest or weed control at 20 ppm is 0%.

And the Efficacy in % (Botrytis cinerea)?
The Efficacy in % was 30%.

What about the pest or weed control at 20 ppm [1] of the same compound?
The pest or weed control at 20 ppm was 0%.

And the pest or weed control at 20 ppm [4]?
Its pest or weed control at 20 ppm is 0%.

What about the “Efficacy in % calculated/found” value ([5]; 18.75 g/ha) of the same compound?
Its value is 0%.

What does the source list for `CC(C)(C)C(O)(CCc1ccc(Cl)cc1)Cn1cncn1` (centres unmarked) [tebuconazole]?
Efficacy in % calculated/found (Pyrenophora teres): 50%; pest or weed control at 20 ppm (Spodoptera frugiperda): 0%; pest or weed control at 20 ppm [1]: 0%; pest or weed control at 20 ppm [4]: 0%

Which results are given for tolylfluanid?
Efficacy in % (Phytophthora infestans; 50 g/ha): 34%; Kill in % [1]: 0%; Kill in % [6]: 0%; Kill in % ([2]; concentration 0.02 %): 0%; Kill in % ([3]; concentration 0.02 %): 0%

Which “Kill in % at active compound concentrations in ppm” value [7] does the source give for `OC(Cc1ccccc1Cl)(Cn1nc[nH]c1=S)C1(Cl)CC1` (centres unmarked) [(49)] here?
The value was 10.00 ppm = 0%.

How did the Kill in % [8] turn out when `CO/N=C(/C(=O)OC)c1ccccc1COc1ccccc1C` [kresoxim-methyl] was run?
The Kill in % was 0%.

What about the pest or weed control at 20 ppm [1] of the same compound?
The pest or weed control at 20 ppm was 0%.

And the “Efficacy in % calculated/found” value ([9]; 18.75 g/ha)?
Its value is 43%.

What about the “Efficacy in % calculated/found” value [9, 10] of the same compound?
The value was 79%.

And the “Efficacy in % calculated/found” value [5, 10]?
The value was 0%.

What does the source list for `CCCC1COC(Cn2cncn2)(c2ccc(Cl)cc2Cl)O1` (centres unmarked) [propiconazole]?
Efficacy in % calculated/found (Pyrenophora teres): 0%; pest or weed control at 20 ppm (Spodoptera frugiperda): 0%; Efficacy in % (Puccinia recondita): 75%; Efficacy in % (Phytophthora infestans; 500 g/ha, 3 days after inoculation): 5%; pest or weed control at 20 ppm [1]: 0%; Kill in % ([3]; concentration 0.004 %): 0%; pest or weed control at 20 ppm [4]: 0%

How did the pest or weed control at 20 ppm (Spodoptera frugiperda) turn out when `COCC(=O)N(c1c(C)cccc1C)C(C)C(=O)OC` (centres unmarked) [metalaxyl] was run?
Its pest or weed control at 20 ppm is 0%.

What about the pest or weed control at 20 ppm [1] of the same compound?
The pest or weed control at 20 ppm was 0%.

What about the Kill in % ([3]; concentration 0.1 %) of the same compound?
The Kill in % was 0%.

What about the pest or weed control at 20 ppm [4] of the same compound?
Its pest or weed control at 20 ppm is 0%.

And the Kill in % (green peach aphid)?
The Kill in % was 0%.
